ChEMBL document CHEMBL5380831, “Azolylpyrimidinediols as Novel Structural Scaffolds of DNA-Groove Binders against Intractable Acinetobacter baumannii” (J Med Chem, 2023)
≈ marks a conversion by molar mass, not a printed value.

Tests used:
Format in all cases: functional
[1] = tested on: Staphylococcus aureus; assay: Antibacterial activity against Staphylococcus aureus ATCC 29213 assessed as bacterial growth inhibition incubated for 24 hrs by broth microdilution method
[2] = tested on: Klebsiella pneumoniae; assay: Antibacterial activity against Klebsiella pneumoniae assessed as bacterial growth inhibition incubated for 24 hrs by broth microdilution method
[3] = tested on: Pseudomonas aeruginosa; assay: Antibacterial activity against Pseudomonas aeruginosa ATCC 27853 assessed as bacterial growth inhibition incubated for 24 hrs by broth microdilution method
[4] = tested on: Enterococcus faecalis; assay: Antibacterial activity against Enterococcus faecalis assessed as bacterial growth inhibition incubated for 24 hrs by broth microdilution method
[5] = tested on: Escherichia coli; assay: Antibacterial activity against Escherichia coli ATCC 25922 assessed as bacterial growth inhibition incubated for 24 hrs by broth microdilution method
[6] = tested on: Pseudomonas aeruginosa; assay: Antibacterial activity against Pseudomonas aeruginosa assessed as bacterial growth inhibition incubated for 24 hrs by broth microdilution method
[7] = tested on: Acinetobacter baumannii; assay: Antibacterial activity against Acinetobacter baumannii assessed as bacterial growth inhibition incubated for 24 hrs by broth microdilution method
[8] = tested on: Staphylococcus aureus; assay: Antibacterial activity against Staphylococcus aureus assessed as bacterial growth inhibition incubated for 24 hrs by broth microdilution method
[9] = tested on: Staphylococcus aureus; assay: Antibacterial activity against Staphylococcus aureus ATCC 25923 assessed as bacterial growth inhibition incubated for 24 hrs by broth microdilution method
[10] = tested on: Escherichia coli; assay: Antibacterial activity against Escherichia coli assessed as bacterial growth inhibition incubated for 24 hrs by broth microdilution method
[11] = tested on: Staphylococcus aureus; assay: Antibacterial activity against methicillin-resistant Staphylococcus aureus assessed as bacterial growth inhibition incubated for 24 hrs by broth microdilution method

| SMILES | MIC [1] [µM] | MIC [2] [µM] | MIC [3] [µM] | MIC [4] [µM] | MIC [5] [µM] | MIC [6] [µM] | MIC [7] [µM] | MIC [8] [µM] | MIC [9] [µM] | MIC [10] [µM] | MIC [11] [µM] |
| --- | --- | --- | --- | --- | --- | --- | --- | --- | --- | --- | --- |
| O=C1c2cccc3c(N4CCN(c5nccc(-n6cncn6)n5)CC4)ccc(c23)C(=O)N1CCO | 9 (≈ 4.23 µg/mL) | 545 (≈ 256 µg/mL) | 545 (≈ 256 µg/mL) | 545 (≈ 256 µg/mL) | 545 (≈ 256 µg/mL) | 545 (≈ 256 µg/mL) | 272 (≈ 128 µg/mL) | 545 (≈ 256 µg/mL) | 68 (≈ 32 µg/mL) | 545 (≈ 256 µg/mL) | 545 (≈ 256 µg/mL) |
| Cc1cc2ncn(-c3ccnc(N(CCO)CCO)n3)c2cc1C | 782 (≈ 256 µg/mL) | 391 (≈ 128 µg/mL) | 98 (≈ 32.1 µg/mL) | 196 (≈ 64.2 µg/mL) | 782 (≈ 256 µg/mL) | 98 (≈ 32.1 µg/mL) | 391 (≈ 128 µg/mL) | 98 (≈ 32.1 µg/mL) | 391 (≈ 128 µg/mL) | 196 (≈ 64.2 µg/mL) | 391 (≈ 128 µg/mL) |
| Cc1cn(-c2ccnc(N(CCO)CCO)n2)c(C)n1 | 924 (≈ 256 µg/mL) | 934 (≈ 259 µg/mL) | 924 (≈ 256 µg/mL) | 924 (≈ 256 µg/mL) | 924 (≈ 256 µg/mL) | 924 (≈ 256 µg/mL) | 462 (≈ 128 µg/mL) | 924 (≈ 256 µg/mL) | 924 (≈ 256 µg/mL) | 924 (≈ 256 µg/mL) | 924 (≈ 256 µg/mL) |
| Brc1ccc2c3ccccc3n(-c3nccc(-n4cncn4)n3)c2c1 | 656 (≈ 257 µg/mL) | 656 (≈ 257 µg/mL) | 656 (≈ 257 µg/mL) | 164 (≈ 64.2 µg/mL) | 656 (≈ 257 µg/mL) | 1 (≈ 0.391 µg/mL) | 656 (≈ 257 µg/mL) | 5 (≈ 1.96 µg/mL) | 1660 (≈ 648 µg/mL) | 656 (≈ 257 µg/mL) | 656 (≈ 257 µg/mL) |
| CCCc1nccn1-c1nccc(N(CCO)CCO)n1 | 879 (≈ 256 µg/mL) | 879 (≈ 256 µg/mL) | 879 (≈ 256 µg/mL) | 879 (≈ 256 µg/mL) | 879 (≈ 256 µg/mL) | 879 (≈ 256 µg/mL) | 879 (≈ 256 µg/mL) | 879 (≈ 256 µg/mL) | 879 (≈ 256 µg/mL) | 879 (≈ 256 µg/mL) | 879 (≈ 256 µg/mL) |
| Cc1nccn1-c1ccnc(N(CCO)CCO)n1 | 1950 (≈ 512 µg/mL) | 973 (≈ 256 µg/mL) | 973 (≈ 256 µg/mL) | 973 (≈ 256 µg/mL) | 973 (≈ 256 µg/mL) | 486 (≈ 128 µg/mL) | 973 (≈ 256 µg/mL) | 973 (≈ 256 µg/mL) | 973 (≈ 256 µg/mL) | 973 (≈ 256 µg/mL) | 973 (≈ 256 µg/mL) |
| Cc1cn(-c2nccc(N(CCO)CCO)n2)c(C)n1 | 924 (≈ 256 µg/mL) | 924 (≈ 256 µg/mL) | 924 (≈ 256 µg/mL) | 58 (≈ 16.1 µg/mL) | 924 (≈ 256 µg/mL) | 462 (≈ 128 µg/mL) | 924 (≈ 256 µg/mL) | 924 (≈ 256 µg/mL) | 924 (≈ 256 µg/mL) | 924 (≈ 256 µg/mL) | 924 (≈ 256 µg/mL) |
| O=S(=O)(c1ccc(F)cc1)N1CCN(c2nccc(-n3cncn3)n2)CC1 | 658 (≈ 256 µg/mL) | 658 (≈ 256 µg/mL) | 658 (≈ 256 µg/mL) | 658 (≈ 256 µg/mL) | 658 (≈ 256 µg/mL) | 329 (≈ 128 µg/mL) | 165 (≈ 64.3 µg/mL) | 658 (≈ 256 µg/mL) | 165 (≈ 64.3 µg/mL) | 658 (≈ 256 µg/mL) | 658 (≈ 256 µg/mL) |
| O=C(CCl)N1CCN(c2nccc(-n3cncn3)n2)CC1 | 104 (≈ 32 µg/mL) | 104 (≈ 32 µg/mL) | 208 (≈ 64 µg/mL) | 417 (≈ 128 µg/mL) | 104 (≈ 32 µg/mL) | 104 (≈ 32 µg/mL) | 208 (≈ 64 µg/mL) | 417 (≈ 128 µg/mL) | 208 (≈ 64 µg/mL) | 208 (≈ 64 µg/mL) | 104 (≈ 32 µg/mL) |
| O=[N+]([O-])c1cn(-c2ccnc(N(CCO)CCO)n2)cn1 | 870 (≈ 256 µg/mL) | 870 (≈ 256 µg/mL) | 435 (≈ 128 µg/mL) | 870 (≈ 256 µg/mL) | 870 (≈ 256 µg/mL) | 435 (≈ 128 µg/mL) |  | 435 (≈ 128 µg/mL) | 435 (≈ 128 µg/mL) | 435 (≈ 128 µg/mL) | 870 (≈ 256 µg/mL) |
| OCCN(CCO)c1nccc(-n2cnnn2)n1 | 1020 (≈ 256 µg/mL) | 1020 (≈ 256 µg/mL) | 1020 (≈ 256 µg/mL) | 1020 (≈ 256 µg/mL) | 1020 (≈ 256 µg/mL) |  | 510 (≈ 128 µg/mL) | 1020 (≈ 256 µg/mL) | 1020 (≈ 256 µg/mL) | 1020 (≈ 256 µg/mL) | 2040 (≈ 512 µg/mL) |
| Cc1ncc([N+](=O)[O-])n1-c1ccnc(N(CCO)CCO)n1 |  | 415 (≈ 128 µg/mL) | 1660 (≈ 512 µg/mL) | 406 (≈ 125 µg/mL) | 831 (≈ 256 µg/mL) | 415 (≈ 128 µg/mL) | 415 (≈ 128 µg/mL) | 415 (≈ 128 µg/mL) | 831 (≈ 256 µg/mL) | 415 (≈ 128 µg/mL) | 831 (≈ 256 µg/mL) |
